Earlier results, collected in patent publication US5888536A (Chinoin Ltd., priority 1994, dated 1999).

## C#CCN(C)[C@H](C)Cc1ccccc1 [selegilin, (-)-[N-α-dimethyl-N-(2-propynylphenylethylamine)]]
chloroform
  solubility in chloroform: 1 g/5 ml
methanol
  solubility in methanol: 1 g/3 ml
water
  solubility in water: 1 g/3 ml
